Data: US5776892A, “Anti-inflammatory peptides” (Curative Health Services, Inc., priority 1994, dated 1998)
“And” between values parts separate entries of the source, which are not always exact repeats. Equal entries are not always repeated. No end group written: not given here.

System: arachidonic acid induced inflammation in mouse ear
Assay: Mouse ear model, arachidonic acid (AA) induced inflammation, ear thickness
Type: in vivo
Settings: for % Reduction of Ear Swelling / Ear Thickness: Table I, sc Alzet minipump
Procedure: The anti-inflammatory properties of CT-112 (SEQ. ID NO: 1) were assessed using a standardized assay for anti-inflammatory activity, i.e., the mouse ear model in which arachidonic acid (AA) is used to induce an inflammatory reaction (Young et al., 1984, J. Invest. Dermatol. 82:367-371; Doherty, et al., 1988, J. Invest. Dermatol. 91:298-302).
Female mice (C57BL/6UAF, Charles River Breeding Laboratories, approximately 15-18 g) were obtained and acclimated for 2 weeks prior to use. The animals were approximately 14 weeks old at the start of the study.
To prepare minipumps for implantation, CT-112 (SEQ. ID NO: 1) was dissolved in PBS. The material was loaded into Alzet minipumps set to deliver 0.05 (5 animals), 0.1 (10 animals), 1 (10 animals), or 2.5 (5 animals) mg of CT-112 (SEQ. ID NO: 1) per animal per day. Minipumps for implantation into control animals contained only PBS. As a positive control, one set of 10 mice received 100 mg/kg of phenidone, a potent 5-lipoxygenase inhibitor which acts as an anti-inflammatory agent, 15 min prior to challenge with AA.
For subcutaneous implantation of minipumps, animals were anesthetized with Ketamine/Xylazine. The Ketamine (Aveco Lot #440140) was injected at 80 mg/kg and the Xylazine (Rugby Laboratories Lot #26040-B) at 16 mg/kg and the Alzet pumps were implanted subcutaneously in the dorsothoracic area. Animals were allowed to recover and then housed and given food and water ad libitum for 5 days.
On the sixth day following pump implantation, 0.01 ml of AA was applied to the inner and outer surfaces of the right ear by means of an automatic microliter pipette. One hr following AA application, the mice were sacrificed and ear thickness was measured with a Mitutoyo No. 7300 Gauge Caliper. The left ears were also measured as an internal control.
Mice were implanted with Alzet mini-pumps set to deliver 60 mg/kg/day for either 7, 3, or 1 days. A separate group of 5 mice received 3 intraperitoneal injections of CT-112 (60 mg/kg/injection) at 24, 1 and 0.25 hr prior to AA challenge. CT-112 (SEQ. ID NO: 1) was prepared for injection by dissolving the compound in Dulbecco's PBS to give a final CT-112 (SEQ. ID NO: 1) concentration of 5 mg/ml. The control mice were implanted with Alzet minipumps that delivered PBS for 7 days. The AA challenge was the same as described supra in Example 7.
Administration of CT-112 (SEQ. ID NO: 1) (60 mg/kg/injection) via multiple intraperitoneal injections was performed at the following times prior to AA challenge:
In addition, the effect of a single administration of CT-112 (SEQ. ID NO: 1) (60 mg/kg) by intraperitoneal injection was performed at either 1 or 3 hr prior to AA challenge. Control mice had Alzet minipumps implanted to deliver PBS for 7 days prior to AA challenge. The AA challenge was the same as described supra in Example 7. The results of the multiple dosing regimens and the 1 hr and 3 hr single dosing regimens were compared to the anti-inflammatory activity of CT-112 (SEQ. ID NO: 1) delivered via Alzet minipump set to deliver 60 mg/kg/day for 7 days using 5 animals per treatment.
In a separate experiment, the effect of multiple intraperitoneal injections of CT-112 (SEQ. ID NO: 1) at either 6, 3, 1 and 0.25 hr, or 16, 3, 1 and 0.25 hr prior to AA challenge was assessed. The results of both multi-dosing regimens were compared to both phenidone (100 mg/kg administered 15 min prior to AA challenge) and CT-112 (SEQ. ID NO: 1) administered via Alzet mini-pump (60 mg/kg/day for 7 days). For this latter study, the number of animals receiving the single injection of CT-112 (SEQ. ID NO: 1) was increased from 5 to 10.
Administration to mice of CT-112 (SEQ. ID NO: 1) (60 mg/kg/injection) via multiple subcutaneous injections prior to AA challenge was performed at:
In addition, other mice received only a single subcutaneous injection of CT-112 (SEQ. ID NO: 1) (60 mg/kg) at either 3 or 1 hr prior to AA challenge. […]

[1] = Table III, 1-day pump, 60 mg/kg/day
[2] = Table III, 3-day pump, 60 mg/kg/day
[3] = Table III, 7-day pump, 60 mg/kg/day
[4] = Table III, ip 60 mg/kg/injection at 24, 1, 0.25 hr prior to AA
[5] = Table IV, 7-day pump, 60 mg/kg/day
[6] = Table IV, ip 60 mg/kg/injection at 1, 0.25 hr prior to AA
[7] = Table IV, ip 60 mg/kg/injection at 3, 1, 0.25 hr prior to AA
[8] = Table IV, ip 60 mg/kg/injection at 6, 3, 1, 0.25 hr prior to AA
[9] = Table IV, single ip 60 mg/kg 3 hr prior to AA
[10] = Table V, 7-day pump, 60 mg/kg/day
[11] = Table V, ip at 6, 3, 1, 0.25 hr prior to AA
[12] = Table V, ip at 16, 3, 1, 0.25 hr prior to AA
[13] = Table VI, 7-day pump, 60 mg/kg/day
[14] = Table VI, sc 60 mg/kg/injection at 1, 0.25 hr prior to AA
[15] = Table VI, sc 60 mg/kg/injection at 3, 1, 0.25 hr prior to AA
[16] = Table VI, sc 60 mg/kg/injection at 6, 3, 1, 0.25 hr prior to AA
[17] = Table VI, single sc 60 mg/kg 1 hr prior to AA
[18] = Table VI, single sc 60 mg/kg 3 hr prior to AA
[19] = Table VII, 3 day pump, 60 mg/kg/day
[20] = Table VII, single ip 3 hr prior to AA
[21] = Table VII, single sc 0.25 hr prior to AA
[22] = Table VII, single sc 1 hr prior to AA
[23] = Table VII, single sc 3 hr prior to AA
[24] = Table VII, single sc 6 hr prior to AA
[25] = Table VIII, 3 day pump, 60 mg/kg/day
[26] = Table VIII, po 200 mg/kg/gavage at 1, 0.25 hr prior to AA
[27] = Table VIII, po 200 mg/kg/gavage at 6, 3, 1, 0.25 hr prior to AA
[28] = Table VIII, single po 200 mg/kg 1 hr prior to AA
[29] = Table VIII, single po 200 mg/kg 3 hr prior to AA
[30] = Table XI, 60 mg/kg/day minipump, 3 days

TTSQVRPR [CT-112, octapeptide derived from platelet factor 4]
% Reduction of Ear Swelling (0.05 mg/animal/day): 43.1%
Ear Thickness (0.05 mg/animal/day, AA on day 6): 0.01577 ± 0.00155 in
% Reduction of Ear Swelling (0.1 mg/animal/day): 43.1%
Ear Thickness (0.1 mg/animal/day): 0.01577 ± 0.00191 in
% Reduction of Ear Swelling (1.0 mg/animal/day): 89.0%
Ear Thickness (1.0 mg/animal/day): 0.01128 ± 0.00291 in
% Reduction of Ear Swelling (2.5 mg/animal/day): 95.6%
Ear Thickness (2.5 mg/animal/day): 0.0106 ± 0.00175 in
% Inhibition of Inflammation [1]: 112%
Thickness Difference (Left-Right) [1]: -0.00074 ± 0.00119 in
% Inhibition of Inflammation [2]: 119%
Thickness Difference (Left-Right) [2]: -0.00115 ± 0.00058 in
% Inhibition of Inflammation [3]: 108%
Thickness Difference (Left-Right) [3]: -0.00051 ± 0.00116 in
% Inhibition of Inflammation [4]: 62%
Thickness Difference (Left-Right) [4]: 0.00226 ± 0.00124 in
% Inhibition of Inflammation [5]: 94% and 93.9%
Thickness Difference (Left-Right) [5]: 0.00033 ± 0.00065 in
% Inhibition of Inflammation [6]: 64.4%
Thickness Difference (Left-Right) [6]: 0.00192 ± 0.00148 in
% Inhibition of Inflammation [7]: 73.8%
Thickness Difference (Left-Right) [7]: 0.00141 ± 0.00138 in
% Inhibition of Inflammation [8]: 73.2%
Thickness Difference (Left-Right) [8]: 0.00144 ± 0.00126 in
Thickness Difference (Left-Right) (Table IV, single ip 60 mg/kg 1 hr prior to AA): 0.00308 ± 0.00189 in
% Inhibition of Inflammation (Table IV, single ip 60 mg/kg 1 hr prior to AA, 60 mg/kg): 43% and 42.9%
% Inhibition of Inflammation [9]: 78.5%
Thickness Difference (Left-Right) [9]: 0.00116 ± 0.001 in
% Inhibition of Inflammation [10]: 100.5%
Thickness Difference (Left-Right) [10]: -0.00003 ± 0.0012 in
% Inhibition of Inflammation [11]: 61.4%
Thickness Difference (Left-Right) [11]: 0.00249 ± 0.0017 in
% Inhibition of Inflammation [12]: 56.3%
Thickness Difference (Left-Right) [12]: 0.00283 ± 0.00218 in
% Inhibition of Inflammation [13]: 87% and 86.5%
Thickness Difference (Left-Right) [13]: 0.00083 ± 0.00084 in
% Inhibition of Inflammation [14]: 68.4%
Thickness Difference (Left-Right) [14]: 0.00195 ± 0.00131 in
% Inhibition of Inflammation [15]: 68.7%
Thickness Difference (Left-Right) [15]: 0.00193 ± 0.0007 in
% Inhibition of Inflammation [16]: 76.2%
Thickness Difference (Left-Right) [16]: 0.00147 ± 0.00041 in
% Inhibition of Inflammation [17]: 71.8%
Thickness Difference (Left-Right) [17]: 0.00174 ± 0.00128 in
% Inhibition of Inflammation [18]: 65.5%
Thickness Difference (Left-Right) [18]: 0.00213 ± 0.00089 in
% Inhibition of Inflammation [19]: 67.0%
Thickness Difference (Left-Right) [19]: 0.00127 ± 0.00128 in
% Inhibition of Inflammation [20]: 37.2%
Thickness Difference (Left-Right) [20]: 0.00242 ± 0.00187 in
% Inhibition of Inflammation [21]: 34.7%
Thickness Difference (Left-Right) [21]: 0.00252 ± 0.00128 in
% Inhibition of Inflammation [22]: 44.5%
Thickness Difference (Left-Right) [22]: 0.00214 ± 0.00122 in
% Inhibition of Inflammation [23]: 36.9%
Thickness Difference (Left-Right) [23]: 0.00243 ± 0.00107 in
% Inhibition of Inflammation [24]: 69.6%
Thickness Difference (Left-Right) [24]: 0.00117 ± 0.00066 in
% Inhibition of Inflammation [25]: 88% and 88.4%
Thickness Difference (Left-Right) [25]: 0.00058 ± 0.00086 in
% Inhibition of Inflammation [26]: 51.9%
Thickness Difference (Left-Right) [26]: 0.00241 ± 0.00124 in
Thickness Difference (Left-Right) (Table VIII, po 200 mg/kg/gavage at 3, 1, 0.25 hr prior to AA): 0.0028 ± 0.00114 in
% Inhibition of Inflammation (Table VIII, po 200 mg/kg/gavage at 3, 1, 0.25 hr prior to AA, 200 mg/kg): 44% and 44.1%
% Inhibition of Inflammation [27]: 73.3%
Thickness Difference (Left-Right) [27]: 0.00134 ± 0.00257 in
% Inhibition of Inflammation [28]: 72.3%
Thickness Difference (Left-Right) [28]: 0.00139 ± 0.00122 in
% Inhibition of Inflammation [29]: 93.8%
Thickness Difference (Left-Right) [29]: 0.00031 ± 0.00198 in
% Inhibition of Inflammation (Table XI, 6 mg/kg/day minipump, 3 days): 40.8%
Thickness Difference (Left-Right) (Table XI, 6 mg/kg/day minipump, AA 3 days after implantation): 0.00381 ± 0.00066 in
% Inhibition of Inflammation [30]: 85.2%
Thickness Difference (Left-Right) [30]: 0.00095 ± 0.00064 in
Thickness Difference (Left-Right) (Table XIII, 60 mg/kg/day via Alzet pump for 24 hr): 0.00132 ± 0.00086 in
Thickness Difference (Left-Right) (Table XIV, 60 mg/kg/day via Alzet pump for 24 hr): 0.00134 ± 0.00044 in
Thickness Difference (Left-Right) (Table XV, 60 mg/kg/day via Alzet pump for 24 hr): 0.00154 ± 0.00092 in
% Inhibition (Table XVI, single 6 mg/kg sc 4 hr prior to AA, ear thickness 1 hr post-challenge): 64.9%
duration of activity (after single subcutaneous injection): greater than 6 hr
inhibition of the inflammatory process (ip 60 mg/kg/injection, all multi-dosing regimens and the 3 hr single dosing regimen): approximately 70%
reduction in inflammation (multiple ip injections at either 6, 3, 1, 0.25 hr or 16, 3, 1, 0.25 hr prior to AA): 56-61%
inhibition of the inflammatory process (oral 200 mg/kg/gavage, all multi- and single-dosing regimens except 3, 1, 0.25 hr): 52-94%
